The record followed here is BindingDB's records for patent US10780095 (THE REGENTS OF THE UNIVERSITY OF CALIFORNIA, 2020).

For the experiment, the target named is Prokineticin receptor 1 (Human, UniProt Q8TCW9). In words: Aequorin-Based Luminescent Assay. The method, then:
An aequorin-based luminescent assay for calcium mobilization was used to measure mobilization of intracellular Ca2+ (Bullock et al., Mol Pharmacol 65, 582-588, 2004). Chinese hamster ovary (CHO) cells stably expressing photoprotein aequorin and recombinant PKR1 or PKR2 were tested by this method. Briefly, the cells were charged in Opti-MEM (Invitrogen) containing 8 μM of coelenterazine cp at 37° C. for 2 hours. Cells were detached by brief trypsinization and maintained in Hank's Balanced Salt Solution (HBSS) plus 10 mM HEPES (pH7.5) and 0.1% BSA at about 5×10^5 cells/ml. Luminescence measurements were made using a Berthold luminometer.All compounds were diluted in HBSS plus 10 mM HEPES (pH7.5) and 0.1% BSA. To test the agonist activity, 100 μl of cells were injected into the tubes with 20 μl of compounds. For antagonist assays, 80 μl cells were incubated in the tubes with 20 μl different concentrations of antagonists at room temperature for 20 minutes, and then 100 μl of recombinant PK2 were injected. The IC50 obtained from the assays were then converted to Ki values using the formula: IC50/(1+[PK2]/EC50PK2).

Prokineticin receptor 1, sequence (Q8TCW9 whole entry): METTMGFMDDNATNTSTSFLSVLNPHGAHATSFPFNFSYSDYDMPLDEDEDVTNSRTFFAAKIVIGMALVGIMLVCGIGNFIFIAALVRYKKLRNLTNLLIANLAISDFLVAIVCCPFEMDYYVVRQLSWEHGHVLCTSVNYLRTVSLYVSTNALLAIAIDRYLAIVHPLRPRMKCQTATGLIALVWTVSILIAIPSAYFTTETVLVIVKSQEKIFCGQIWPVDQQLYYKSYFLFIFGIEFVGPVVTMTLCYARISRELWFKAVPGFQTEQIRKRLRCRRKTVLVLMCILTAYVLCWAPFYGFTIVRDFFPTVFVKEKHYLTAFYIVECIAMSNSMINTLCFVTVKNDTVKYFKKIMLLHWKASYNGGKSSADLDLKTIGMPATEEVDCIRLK

The Ki is the equilibrium dissociation constant of an inhibitor or competing ligand from its target. Turning to `COc1cc(F)cc(CN2CCC(C(=O)N(Cc3cc(Cl)c4c(c3)OCCCO4)CC(C)C)C2)c1` (configuration not stated) [US10780095, Structure TABLE 1.18], the affinity corresponds to a Ki of 41.5 nM.
The compound `COc1cc(F)cc(CN2CCC(C(=O)N(Cc3cc(Cl)c4c(c3)OCCCO4)CC(C)C)C2)c1` (configuration not stated) [US10780095, Structure TABLE 1.16] showed a Ki of 373 nM. This Ki is about 9-fold higher than that of the compound before.
